The values that follow come from patent US9839642B2, “Beta-tetrazolyl-propionic acids as metallo-beta-lactamase inhibitors” (priority 2014, dated 2017).

The structures appear in SMILES notation.

Experiment [1] relates to Escherichia coli expressing NDM-1 (CLB30016). Description: Antibiotic potentiation activity: synergistic concentration (MITC95) with imipenem, growth by OD600. The experiment is classed as cell-based. The note with it: 95% inhibition of bacterial growth, strain CLB30016. The method in brief:
(§1)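 Colonies from overnight agar plates (35 °C) were suspended in saline and diluted 1:100 into 1.1× CAMHB. Inhibitor (final 200 μM to 0.195 μM) was combined with imipenem at 1 or 4 μg/ml, incubated 22–24 h at 35 °C, and absorbance read; MITC95 is the lowest inhibitor concentration giving 95% growth inhibition.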

Experiment [2] concerns Klebsiella pneumoniae expressing VIM-1 (IHMA599644). Described as above. The format is cell-based. The note with it: 95% inhibition of bacterial growth, strain IHMA599644. The method in brief:
as §1

Experiment [3] has as its system Serratia marcescens expressing IMP-1 (CL5741). The experiment is described as above. The experiment is classed as cell-based. To be noted: 95% inhibition of bacterial growth, strain CL5741. The method in brief: as §1
For a further experiment, the target named is NDM-1 (Klebsiella pneumoniae, UniProt C7C422). Description: Enzyme activity: determination of IC50, fluorescence assay with CCF2-FA substrate. The experiment is classed as biochemical. The note with it: enzyme 1 pM, CCF2-FA 1.25 μM, 2 hours at 25° C.; read-out: NDM1 IC50. In outline:
(§2)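 Enzyme at 1 pM (NDM-1), 2 pM (IMP-1) or 30 pM (VIM-1) was incubated with inhibitor (20 μM to 0.00063 μM) and 1.25 μM CCF2-FA in 100 mM KH2PO4 pH 7, 0.005% Tween-20, 10 μM ZnSO4 for 2 hours at 25° C. Fluorescence was read at ex 405/em 460 nm; IC50 from 4-parameter fit.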

In the next experiment the target is IMP-1 (Serratia marcescens, UniProt P52699). Described as above. The note with it: enzyme 2 pM, CCF2-FA 1.25 μM, 2 hours at 25° C.; read-out: IMP1 IC50. The format is biochemical. The method in brief:
as §2

The next experiment addresses VIM-1 (Pseudomonas aeruginosa, UniProt A0A0F7KYQ8). Described as above. The format is biochemical. The note with it: enzyme 30 pM, CCF2-FA 1.25 μM, 2 hours at 25° C.; read-out: VIM1 IC50. In outline:
as §2

Sequence of IMP-1 (P52699 19-246, looked up, species assumed): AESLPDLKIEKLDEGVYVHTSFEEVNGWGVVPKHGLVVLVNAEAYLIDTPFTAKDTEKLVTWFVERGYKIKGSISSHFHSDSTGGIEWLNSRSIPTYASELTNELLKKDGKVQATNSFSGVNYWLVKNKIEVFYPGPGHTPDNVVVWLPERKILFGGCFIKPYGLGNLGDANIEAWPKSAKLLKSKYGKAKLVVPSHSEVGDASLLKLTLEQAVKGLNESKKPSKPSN
Sequence of NDM-1 (C7C422 29-270, looked up, species assumed): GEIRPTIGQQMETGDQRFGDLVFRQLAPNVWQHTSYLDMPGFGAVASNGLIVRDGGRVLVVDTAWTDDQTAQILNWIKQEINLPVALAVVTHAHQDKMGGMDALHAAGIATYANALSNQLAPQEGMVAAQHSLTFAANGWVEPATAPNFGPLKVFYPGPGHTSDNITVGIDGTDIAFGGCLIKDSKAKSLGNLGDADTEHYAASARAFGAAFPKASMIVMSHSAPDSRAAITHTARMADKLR

`O=C(O)[C@@H](C1CCCC1)[C@H](Cc1ccc(C2CCNC2)cc1)c1nnn[nH]1` (stereo partly drawn) [Example 79, 3-(4-((2S,3S)-3-carboxy-3-cyclopentyl-2-(1H-tetrazol-5-yl)propyl)phenyl)pyrrolidin-1-ium]: in experiment [1], the “NDM1 EC30016 MITC95” value worked out at 3.1 µM. Further, in experiment [2], the “VIM1 KP599644 MITC95” value worked out at 6.2 µM. The “IMP1 SM5741 MITC95” value in experiment [3] is 4.7 µM. The IC50 at NDM-1 was 24 nM; at IMP-1, 190 nM; on VIM-1, 2.3 nM.

`O=C(O)[C@@H](C1CCCC1)[C@H](Cc1ccc(C2CCNCC2)cc1)c1nnn[nH]1` [Example 80, 4-(4-((2S,3S)-3-carboxy-3-cyclopentyl-2-(1H-tetrazol-5-yl)propyl)phenyl)piperidine]: in experiment [1], the “NDM1 EC30016 MITC95” value was found to be 6.2 µM. Moreover, the “VIM1 KP599644 MITC95” value in experiment [2] stood at 9.4 µM. Besides, the “IMP1 SM5741 MITC95” value in experiment [3] stood at 1.6 µM. Also, the figures for the IC50 at NDM-1, at IMP-1 and on VIM-1 were 17 nM, 73 nM and 2.2 nM, respectively.

In the case of `CC[C@H](C)[C@H](C(=O)O)[C@H](Cc1ccc(C2CCNC2)cc1)c1nnn[nH]1` (stereo partly drawn) [Example 81, (2S,3S)-3-methyl-2-((1S)-2-(4-(pyrrolidin-3-yl)phenyl)-1-(1H-tetrazol-5-yl)ethyl)pentanoic acid], the “NDM1 EC30016 MITC95” value in experiment [1] is 2.3 µM. Besides, the “VIM1 KP599644 MITC95” value in experiment [2] came to 6.2 µM. The “IMP1 SM5741 MITC95” value in experiment [3] was found to be 2.3 µM. Further, the IC50 on NDM-1 was determined as 46 nM; on IMP-1 it was 65 nM; on VIM-1, 4.4 nM.

As to `CCC[C@H](C(=O)O)[C@H](Cc1ccc(C#N)cn1)c1nnn[nH]1` [Example 84, (2S)-2-[(1S)-2-(5-cyanopyridin-2-yl)-1-(1H-tetrazol-5-yl)ethyl]pentanoic acid], the “NDM1 EC30016 MITC95” value in experiment [1] was 18.8 µM. Moreover, the “VIM1 KP599644 MITC95” value in experiment [2] was determined as 50 µM. For the same molecule, the “IMP1 SM5741 MITC95” value in experiment [3] is above 200 µM. The values for the IC50 at NDM-1, at IMP-1 and at VIM-1 were 1200 nM, above 20000 nM and 47 nM, respectively.

Consider `CCC[C@H](C(=O)O)[C@H](Cc1ccc(C)nc1)c1nnn[nH]1` [Example 85, (2S)-2-[(1S)-2-(6-methylpyridin-3-yl)-1-(1H-tetrazol-5-yl)ethyl]pentanoic acid], for which the “NDM1 EC30016 MITC95” value in experiment [1] was found to be 0.78 µM. In experiment [2], the “VIM1 KP599644 MITC95” value is 18.8 µM. The “IMP1 SM5741 MITC95” value in experiment [3] amounted to 100 µM. Besides, the IC50 at NDM-1 worked out at 250 nM; at IMP-1, 6500 nM; on VIM-1, 6.2 nM.

Consider `CCC[C@H](C(=O)O)[C@H](Cc1ccc(S(=O)(=O)C2CC2)nc1)c1nnn[nH]1` [Example 86, (2S)-2-[(1S)-2-[6-(cyclopropylsulfonyl)pyridin-3-yl]-1-(1H-tetrazol-5-yl)ethyl]pentanoic acid], for which the “NDM1 EC30016 MITC95” value in experiment [1] was found to be 50 µM. In addition, the “VIM1 KP599644 MITC95” value in experiment [2] turned out to be 100 µM. Further, in experiment [3], the “IMP1 SM5741 MITC95” value was found to be 125 µM. The IC50 was 130 nM at NDM-1, 3300 nM at IMP-1 and 11 nM at VIM-1.

On to `CCC[C@H](C(=O)O)[C@H](Cc1cccnc1Cl)c1nnn[nH]1` [Example 87, (2S)-2-[(1S)-2-(2-chloropyridin-3-yl)-1-(1H-tetrazol-5-yl)ethyl]pentanoic acid], for which, in experiment [1], the “NDM1 EC30016 MITC95” value was determined as 12.5 µM. The “VIM1 KP599644 MITC95” value in experiment [2] came to 25 µM. The “IMP1 SM5741 MITC95” value in experiment [3] is above 200 µM. Besides, the IC50 at NDM-1 amounted to 300 nM; at IMP-1, 6600 nM; at VIM-1, 2.3 nM.

`CCC[C@H](C(=O)O)[C@H](Cc1ccncc1)c1nnn[nH]1` [Example 88, (2S)-2-[(1S)-2-pyridin-4-yl-1-(1H-tetrazol-5-yl)ethyl]pentanoic acid]: in experiment [1], the “NDM1 EC30016 MITC95” value was determined as 0.78 µM. Also, the “VIM1 KP599644 MITC95” value in experiment [2] stood at 6.2 µM. In addition, the “IMP1 SM5741 MITC95” value in experiment [3] turned out to be 37.5 µM. Besides, the IC50 on NDM-1 was found to be 180 nM; at IMP-1 it was 2000 nM; on VIM-1, 5.6 nM.

Turning to `CC(C)[C@H](C(=O)O)[C@H](CC1CCNCC1)c1nnn[nH]1` [Example 89, (2S,3S)-2-isopropyl-4-(piperidin-4-yl)-3-(1H-tetrazol-5-yl)butanoic acid], the “NDM1 EC30016 MITC95” value in experiment [1] was 18.8 µM. Besides, the “VIM1 KP599644 MITC95” value in experiment [2] was 37.5 µM. Further, the “IMP1 SM5741 MITC95” value in experiment [3] was above 200 µM. Further, the values for the IC50 on NDM-1, on IMP-1 and on VIM-1 were 18000 nM, above 20000 nM and 2100 nM, respectively.

Take `CC(=O)N1CCC(C[C@H](c2nnn[nH]2)[C@@H](C(=O)O)C(C)C)CC1` [Example 90, (2S,3S)-4-(1-acetylpiperidin-4-yl)-2-isopropyl-3-(1H-tetrazol-5-yl)butanoic acid]: in experiment [1], the “NDM1 EC30016 MITC95” value was determined as 62 µM. For the same molecule, in experiment [2], the “VIM1 KP599644 MITC95” value is 200 µM. The “IMP1 SM5741 MITC95” value in experiment [3] was above 200 µM. Also, the IC50 was determined as 200 nM on NDM-1, 14000 nM at IMP-1 and 310 nM on VIM-1.

As for `CC(C)[C@H](C(=O)O)[C@H](Cc1ccc(Br)nc1)c1nnn[nH]1` [Example 91, (2S,3S)-4-(6-bromopyridin-3-yl)-2-isopropyl-3-(1H-tetrazol-5-yl)butanoic acid], the “NDM1 EC30016 MITC95” value in experiment [1] was found to be 7.8 µM. Moreover, in experiment [2], the “VIM1 KP599644 MITC95” value was 12.5 µM. The “IMP1 SM5741 MITC95” value in experiment [3] turned out to be 50 µM. For the same molecule, the IC50 on NDM-1 came to 32 nM; at IMP-1 it was 2200 nM; at VIM-1, 7.9 nM.

As for `CC(C)[C@H](C(=O)O)[C@H](Cc1cccc(Br)n1)c1nnn[nH]1` [Example 92], in experiment [1], the “NDM1 EC30016 MITC95” value was found to be 9.4 µM. Moreover, in experiment [2], the “VIM1 KP599644 MITC95” value was 25 µM. Moreover, the “IMP1 SM5741 MITC95” value in experiment [3] was found to be 100 µM. The IC50 at NDM-1 was 110 nM; at IMP-1, 5500 nM; at VIM-1, 28 nM.

`CCC[C@H](C(=O)O)[C@H](Cc1ccc(C(N)=O)cn1)c1nnn[nH]1` [Example 93, (S)-2-((S)-2-(5-carbamoylpyridin-2-yl)-1-(1H-tetrazol-5-yl)ethyl) pentanoic acid]: the “NDM1 EC30016 MITC95” value in experiment [1] came to 6.2 µM. For the same molecule, in experiment [2], the “VIM1 KP599644 MITC95” value stood at 25 µM. In addition, the “IMP1 SM5741 MITC95” value in experiment [3] is above 200 µM. In addition, the IC50 is 580 nM at NDM-1, above 20000 nM on IMP-1 and 90 nM at VIM-1.

As to `CCC[C@H](C(=O)O)[C@H](Cc1cccc(C(=O)O)n1)c1nnn[nH]1` [Example 94, 6-((2S,3)-3-carboxy-2-(1H-tetrazol-5-yl)hexyl)picolinic acid], the “NDM1 EC30016 MITC95” value in experiment [1] was determined as 50 µM. The “VIM1 KP599644 MITC95” value in experiment [2] is 200 µM. Also, the “IMP1 SM5741 MITC95” value in experiment [3] is above 200 µM. Also, the values for the IC50 at NDM-1, at IMP-1 and on VIM-1 were 4500 nM, above 20000 nM and 2900 nM, respectively.

As to `CCC[C@H](C(=O)O)[C@H](Cc1ccc(-c2ccc(CN)cc2)nc1)c1nnn[nH]1` [Example 96, (4-(5-((2S,3S)-3-carboxy-2-(1H-tetrazol-5-yl)hexyl)pyridin-2-yl)phenyl)methanaminium], the “NDM1 EC30016 MITC95” value in experiment [1] was determined as 6.2 µM. For the same molecule, the “VIM1 KP599644 MITC95” value in experiment [2] is 18.8 µM. The “IMP1 SM5741 MITC95” value in experiment [3] is 37 µM. Besides, the IC50 on NDM-1 was 280 nM; at IMP-1 it was 3100 nM; at VIM-1 it was 9 nM.

`CCC[C@H](C(=O)O)[C@H](Cc1ccc(-c2ccc(-c3nn[nH]n3)cc2)nc1)c1nn[nH]n1` [Example 97, (S)-2-((S)-2-(6-(4-(2H-tetrazol-5-yl)phenyl)pyridin-3-yl)-1-(1H-tetrazol-5-yl)ethyl)pentanoic acid]: the “NDM1 EC30016 MITC95” value in experiment [1] turned out to be 100 µM. Moreover, the “VIM1 KP599644 MITC95” value in experiment [2] was found to be 200 µM. For the same molecule, in experiment [3], the “IMP1 SM5741 MITC95” value was determined as 31 µM. Further, the IC50 on NDM-1 was found to be 1.2 nM; on IMP-1 it was 380 nM; at VIM-1, 5.9 nM.

`CC(C)C[C@H](C(=O)O)[C@H](Cc1ccc(-c2ccc3c(c2)CNC3)cn1)c1nnn[nH]1` [Example 99, (S)-2-((S)-2-(5-(isoindolin-5-yl)pyridin-2-yl)-1-(1H-tetrazol-5-yl)ethyl)-4-methylpentanoic acid]: in experiment [1], the “NDM1 EC30016 MITC95” value was determined as 31 µM. Further, the “VIM1 KP599644 MITC95” value in experiment [2] turned out to be 100 µM. In addition, the “IMP1 SM5741 MITC95” value in experiment [3] was 75 µM. Besides, the values for the 50% inhibitory concentration (IC50) at NDM-1, at IMP-1 and at VIM-1 were 600 nM, 3900 nM and 350 nM, respectively.

Take `CC(C)C[C@H](C(=O)O)[C@H](Cc1ccc(C2CCNC2)nc1)c1nnn[nH]1` (stereo partly drawn) [Example 100, (2S)-4-methyl-2-((1S)-2-(6-(pyrrolidin-3-yl)pyridin-3-yl)-1-(1H-tetrazol-5-yl)ethyl)pentanoic acid]: in experiment [1], the “NDM1 EC30016 MITC95” value worked out at 6.2 µM. The “VIM1 KP599644 MITC95” value in experiment [2] was found to be 12.5 µM. The “IMP1 SM5741 MITC95” value in experiment [3] amounted to 25 µM. Also, the values for the IC50 at NDM-1, at IMP-1 and at VIM-1 were 280 nM, 2900 nM and 4.9 nM, respectively.
